Read-outs that look alike come from different tables or passages of the source.
How the values were obtained:
[1] = system: CA18-NanoLuc frameshift reporter in HEK293FT cells; assay: Frameshift reporter (FSR) CA(18)-NanoLuc assay, small molecule treatment; format: cell-based; settings: for increase in FSR signal: 72 hours, vs untreated FSR luminescence; for FSR activity (in words): dose range
From the text: In order to read out mismatch repair (MMR) and hypermutability in mammalian cells, a Frameshift reporter (FSR) assay was used. The assay specifically focuses on frameshifts because, of all mismatch mutations, these are the ones that most abundantly generate neoantigens (see, for example, Turajlic et al. Lancet Oncol. 2017 (18; 1009-21). The assay based on the activity of the NanoLuciferase (NanoLuc®, Promega) reporter enzyme was developed (the “CA(n)-NanoLuc assay”). Copies of the CA dinucleotide repeat (referred to as “CA(n)”) were cloned upstream of the NanoLuc coding sequence. Typically 18 copies of the CA dinucleotide repeat (CA(18)) were used. Alternatively, the assay used 20 copies (CA(20)). This CA(n) tract renders the NanoLuc coding sequence out of frame, and therefore there is no reporter enzyme expression and no activity. The CA(n) tract is, however, a sequence which is subject to frequent DNA replication errors, and is therefore reliant on the MMR pathway to repair any post-replicative DNA mismatches. In a MMR-competent cell, any errors are efficiently repaired, the NanoLuc coding sequence remains out of frame and thus reporter activity is low. If, however, MMR is inhibited either by a small molecule or by genetic loss of any of the MMR machinery, post-replicative errors may remain unrepaired, frameshift mutations may occur, and therefore some cells in a population will now express a functional NanoLuc protein.
MMR inhibition can therefore be reported as an increase in NanoLuc® activity when a plasmid containing a CA repeat, such as the CA(18) NanoLuc construct, is transfected into cells. Since NanoLuc® is a highly processive enzyme with a large and linear dynamic range, it was predicted that only a small number of MMR errors would be required to generate a positive signal, making for a sensitive assay with a large signal to noise ratio.
In addition, it has been shown that inhibition of RNR causes altered pools of dNTP resulting in increased mutation rates. Relatively modest dNTP pool deviations induce exceptionally strong mutator phenotypes which cause saturation of the DNA mismatch repair system and lead to detection in the FSR assay system.
HEK293FT cells seeded at 600,000 cells per well in a 6 well plate and incubated overnight. Media was replaced and incubated a further 2 hours before transient transfection of pcDNA3.1 Hygro CA18Nluc (0.5 μg). After 4 hours media was replaced and incubated overnight. Media was aspirated, cells washed with PBS and trypsinised. Cells were pelleted by centrifugation (1000×g, 5 mins), washed in PBS, centrifuged again and resuspended in fresh media to […].
(§1) A 96 well plate was seeded with 100 μl of transfected cells and incubated overnight. A 2× solution of clofarabine was made to 100 μM in DMEM and 9× two-fold dilutions were made in growth media. A parallel dilution series was made with equal concentrations of DMSO as a control. 100 μL of clofarabine or DMSO solution was added to wells of 96 well plates (6 replicates per concentration). PBS was added to outer wells of 96 well plates and incubated for 48 hours. To 3 wells per concentration a 1:1 ratio of CellTiter Glo (Promega) was added. To remaining wells, an equal volume of NanoGlo (Promega) reagent was added. 100 μL was aliquoted from each well to a 96 well, white walled, white bottomed plate and luminescence read. Percentage viability was calculated for all conditions in comparison to an untreated control and nanoluciferase reading were normalised to viability.
For triapine treatment, cells were initially seeded into 6 well plates and transfected with the pcDNA3.1 Hygro CA18Nluc construct, as in the detailed method for clofarabine treatment. After transfection, cells were trypsinised and seeded into white-walled 384 well plates at a density of 2000 cells per well in a final volume of 30 uL. After 24 hours, cells were treated with compounds or a DMSO solvent control in a final volume of 3.3 uL. […]

HEK293FT cells [2] = assay: CellTitre Glo viability assay; format: cell-based; settings: HEK293FT cells, 3.33 uM, 72 hours
Protocol: as §1
(§2) For triapine treatment, cells were initially seeded into 6 well plates and transfected with the pcDNA3.1 Hygro CA18Nluc construct, as in the detailed method for clofarabine treatment. After transfection, cells were trypsinised and seeded into white-walled 384 well plates at a density of 2000 cells per well in a final volume of 30 uL. After 24 hours, cells were treated with compounds or a DMSO solvent control in a final volume of 3.3 uL. Compound stock was diluted to achieve a final concentration of 10 uM, and compounds were serially diluted in DMSO by three-fold to generate the dose-response curve. Compound was subsequently diluted in media, and then added to cells in 3.3 uL, ensuring a final concentration of DMSO no greater than 0.5%. PBS was added to outer wells of the 384 well plates and incubated for 72 hours. To 3 wells per concentration, 5 uL of CellTiter Glo (Promega) was added. To remaining wells, 30 uL of NanoGlo (Promega) reagent was added and incubated at room temperature for 30 minutes. Luminescence was read. Percentage viability was calculated for all conditions in comparison to an untreated control and nanoluciferase reading were normalised to viability.

[3] = CellTitre Glo viability assay; format: cell-based; settings: human
Protocol: as §1, §2

HEK293FT cells [4] = assay: GI50, standard dosimetric assay testing for cell growth; format: cell-based
CT26 cells [5] = assay: Whole exome sequencing of CT26 cells after 100 days of clofarabine; format: cell-based, mouse; settings: 100 nM, relative to matched vehicle only control
Protocol: CT26 cells, cultured in RPM11640 were dosed with 100 nM clofarabine or with DMSO only. Cells were passaged and re-dosed every 72 hours. Cells were harvested at 100 days, and single-cell colonies (SSCs) derived for each sample. After expansion over 8-10 days, genomic DNA was extracted from SSC pellets and whole exome sequencing (WES) performed following methods such as those described, for example, in WO2017/182783, see page 33, line 21 onwards and page 34, lines 1 to 5.
Somatic single nucleotide variants (SNVs), multiple-nucleotide polymorphisms (MNPs), and insertion-deletion (InDel) mutations were identified using the GATK4 Toolkit and GATK's Mutect2 (version 4.1.4.0) to analyse the WES data. Prior to mapping the read sequences to the reference genome (mm10), read data quality and adapter trimming and QC was performed using TrimGalore and a Q-score cut-off of 30. Reads were aligned to mm10 using BWA mem (version 0.7.17-r1188). Duplicate reads were marked using MarkDuplicates (Picard, GATK4 copy). Variant discovery using Mutect2 was performed using a custom generated interval list and Panel of Normals (PON) resource. The interval list was derived for a BED file of canonical transcript exon positional information for mm10, which was generated using the UCSC TableBrowser. The PON was derived for matched CT26 WES data using Mutect2, GenomicsDBImport, and CreateSomaticPanelOfNormals. Variant filtering was performed using FilterMutectCalls (GATK4). Variants detailed in the VCF files generated using FilterMutectCalls were further filtered using a shell script in order to keep only variants meeting the quality control thresholds applied by FilterMutectCalls and exclude variants identified for reads mapping to unlocalized and unplaced contigs. The functional effects of the identified variants (on genes, transcripts, protein sequences, and regulatory regions) were predicted using the Ensembl Variant Effect Predictor (VEP).

CT26 cells [6] = assay: T cell killing assay with clofarabine-treated CT26 cells; format: cell-based, mouse; settings: CT26 cells treated with 100 nM for 100 days; stimulated and unstimulated, C57BL/6- and Balb/c-derived CD8 T cells, 10:1, 72 h
Protocol: T-cell extraction: Spleen from C56BL/6 and Balb/c mice was homogenised aseptically using a cell strainer and syringe plunger. RBC was lysed using lysis buffer and remaining cells washed and counted. Dynabeads untouched mouse CD8 cell kit (Thermofisher: 11417D) used to isolate CD8 cells using negative selection. Half these cells were cultured as unstimulated for assay controls but the majority was cultured with Dynabeads Mouse T-activator CD3/CD28 beads for 24 h prior to assay. T-cell assay: CT26 tumour cell lines (parental as control) was plated at 3,000 cells per well into a 96 well plate; effector cells at a ratio of 10:1 was added along with appropriate stains and imaged on the EVOS microscope over a period of 72 h.

[7] = recommended dose for adult acute leukemia, 40 mg/m2/day×5 days; cited from earlier work

SMILES: Nc1nc(Cl)nc2c1ncn2[C@H]1C[C@H](O)[C@@H](CO)O1 [cladribine, Cladribine]
- increase in FSR signal ([1]; 3.33 uM): 226%
- reduction in viability (HEK293FT cells [2]): no reduction in viability

SMILES: Nc1nc(Cl)nc2c1ncn2[C@@H]1O[C@H](CO)[C@@H](O)[C@@H]1F [clofarabine, (2R,3R,4S,5R)-5-(6-amino-2-chloropurin-9-yl)-4-fluoro-2-(hydroxymethyl)oxolan-3-ol]
- increase in FSR signal ([1]; 50 nM): 40%
- FSR activity (in words) [1]: dose-dependent increase in FSR activity
- viability at 72 h, 0.05 µM [3]: 92%
- GI50 (HEK293FT cells [4]): 0.43 µM
- overall burden of mutations (largely SNV) (CT26 cells [5]): does not increase substantially
- proportion of frame-shift causing InDel mutations (CT26 cells [5]): elevated
- total count of frame-shift causing InDel mutations (CT26 cells [5]): elevated
- T cell killing (CT26 cells [6]): significantly increase T cell killing
- plasma levels [7]: around 1 μM

SMILES: Nc1ccn([C@@H]2O[C@H](CO)[C@@H](O)C2(F)F)c(=O)n1 [gemcitabine]
- increase in FSR signal ([1]; 370 nM): 300%
- FSR activity (in words) [1]: causes an increase in FSR activity
- cytotoxicity at 72 h, 370 nM [3]: 50%
- GI50 (HEK293FT cells [4]): 0.44 µM

SMILES: NC(=S)N/N=C/c1ncccc1N [triapine]
- increase in FSR signal ([1]; 370 nM): 400%
- cytotoxicity at 72 h, 370 nM ([3]; HEK293FT cells, 370 nM, 72 hours, vs DMSO control, read-out: reduction in viability): 23%
- GI50 (HEK293FT cells [4]): 0.6 µM

Source: US20210393667A1, “TARGET FOR ANTI-CANCER THERAPY” (Phoremost Limited, priority 2018, published 2021)
